Laboratory results published in patent US12331312B2, “Deterministic culturing of single cells” (Purdue Research Foundation, priority 2020, dated 2025).

Tested on: MCF7 tumors
Test: Paclitaxel treatment of single-cell-derived MCF7 tumors on collagen islands; apoptosis counted by Hoechst nuclear morphology
Format: cell-based
Description: Hoechst staining was used to visualize cells in the tumor using fluorescence microscopy (FIG. 4). Specifically, cells were washed in PBS and fixed in 4% paraformaldehyde before staining with 1:1000 PBS diluted solution of 20 mM Hoechst 33342 (Thermo Fischer Scientific, Waltham, MA) for 10 minutes. After washing once with PBS, tumors were imaged with a ZEISS LSM 800 confocal microscope with an excitation laser of 401 nm wavelength and with 10× magnification lens (EC Plan-Neofluar® 10×/0.30 M27). Bright-field and fluorescence images were also obtained using NIKON ECLIPSE® 80i upright fluorescence microscope, which were used to analyze the morphology of the tumors with ImageJ. […]
For each tumor, dead and live nuclei at every alternate plane of the z-stack were manually counted using Fiji cell counting software. […]
Since each island comprises a relatively small amount of collagen (e.g. as opposed to an entire well of a 96-well plate), excess dye that inadvertently diffuses into the collagen can be washed easily to reduce any background fluorescence signal. Live and dead cells (the latter indicated by smaller or fragmented nuclei with intense staining due to DNA condensation) from individual planes of z-stack confocal images of each tumor were manually counted according to a procedure described by Crowley et al. (see, e.g., Crowley et al., Cold Spring Harb. Protoc. pdb.prot087205 2016). […]

## CC(=O)O[C@H]1C(=O)[C@@]2(C)[C@H]([C@H](OC(=O)c3ccccc3)[C@]3(O)C[C@H](OC(=O)[C@H](O)[C@@H](NC(=O)c4ccccc4)c4ccccc4)C(C)=C1C3(C)C)[C@]1(OC(C)=O)CO[C@@H]1C[C@@H]2O [Paclitaxel]
13-day old MCF7 tumors, Paclitaxel 5 nM, 20 nM and 100 nM for 24 hours, Hoechst 33342 nuclear morphology
  average cell death (percentage of apoptotic cells): increased with drug concentration
Each drug concentration (5, 20, 100 nM), 24 hours
  variation in the response of individual tumors: significant variation in the response of individual tumors for each drug concentration
